These results are taken from patent publication US12344610B2, “APOL1 inhibitors and methods of use” (Maze Therapeutics, Inc., priority 2022, dated 2025).

Experiment [1] deals with HEK293 cells overexpressing APOL1 G2. The experiment in a line: APOL1 G2 HEK293 cell rescue assay (reversal of cell death caused by overexpression of APOL1). The class given is cell-based. To be noted: geometric mean of at least 2 assay runs, † = single assay run. An outline of the steps:
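EC50 is the half-maximal effective concentration for reversing cell death driven by APOL1 G2 overexpression in HEK293 cells. Reported as geometric mean of at least 2 runs on separate days, each run averaging duplicate wells per plate; some values from a single run.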

The test system of experiment [2] is Trypanosoma brucei Lister 427 VSG221 with APOL1 G0 recombinant protein. The experiment in a line: APOL1 G0 trypanosome cell rescue assay (Example B5). The experiment is classed as cell-based. The note with it: geometric mean of at least 2 assay runs, † = single assay run. An outline of the steps:
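Recombinant mature APOL1 (residues 28-398, His-tag removed, E. coli-expressed, refolded from inclusion bodies, DDM buffer) at […] added with 250 trypanosomes/well in modified HMI-9 media. Duplicate 11-point 2-fold compound series, 0.4% DMSO; 20 h at 37° C, 5% CO2, then CellTiter-Glo luminescence for viability.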

Setting [3] is: Homo sapiens, HEK293, HEK293 overexpressing APOL1 G2.
Setting [4] is: Trypanosoma brucei, 20 h, read-out: APOL1 G0 Trypanosome Rescue EC50, Trypanosoma brucei Lister 427 VSG221 with APOL1 G0 recombinant protein, 20 hours, CellTiter-Glo.
Where [5] appears, read: read-out: APOL1 G0 Trypanosome Rescue EC50, Trypanosoma brucei Lister 427 VSG221 with APOL1 G0 recombinant protein, 20 hours, CellTiter-Glo.

Where two headings read alike, the source gives them in different places.

`CC(c1ncc(OCCN2CCC3(CC2)C(=O)Nc2ccc(Cl)cc23)cn1)S(C)(=O)=O` (single isomer, unassigned) [Compound 2, 5-chloro-1′-[2-({2-[(1S) or (1R)-1-methanesulfonylethyl]pyrimidin-5-yl}oxy)ethyl]-1,2-dihydrospiro[indole-3,4′-piperidin]-2-one]: the EC50 in experiment [1] (setting [3]) turned out to be 134 nM; in experiment [2] (setting [4]) it was 192 nM.
With `CC(c1ncc(OCCN2CCC3(CC2)C(=O)Nc2ccc(Cl)cc23)cn1)S(C)(=O)=O` (single isomer, unassigned) [Compound 3, 5-chloro-1′-[2-({2-[(1R) or (1S)-1-methanesulfonylethyl]pyrimidin-5-yl}oxy)ethyl]-1,2-dihydrospiro[indole-3,4′-piperidin]-2-one], the EC50 in experiment [1] (HEK293 overexpressing APOL1 G2) turned out to be 142 nM; in experiment [2] (setting [5]), 248 nM.
Turning to `CC(O)c1ncc(OCCN2CCC3(CC2)C(=O)Nc2ccc(C#N)cc23)cc1C(F)(F)F` (single isomer, unassigned) [Compound 376, 1′-[2-({6-[(1S) or (1R)-1-hydroxyethyl]-5-(trifluoromethyl)pyridin-3-yl}oxy)ethyl]-2-oxo-1,2-dihydrospiro[indole-3,4′-piperidine]-5-carbonitrile], the EC50 came to 46.9 nM in experiment [1] (setting [3]) and 95.6 nM in experiment [2] (setting [5]).
On to `CC(O)c1ncc(OCCN2CCC3(CC2)C(=O)Nc2ccc(C#N)cc23)cc1C(F)(F)F` (single isomer, unassigned) [Compound 377, 1′-[2-({6-(1S) or (1R)-1-hydroxyethyl]-5-(trifluoromethyl)pyridin-3-yl}oxy)ethyl]-2-oxo-1,2-dihydrospiro[indole-3,4′-piperidine]-5-carbonitrile], for which the EC50 in experiment [1] (HEK293 overexpressing APOL1 G2) is 85.9 nM; in experiment [2] (setting [5]), 205 nM.
`CS(=O)(=O)C1(c2ncc(OCCN3CCC4(CC3)C(=O)Nc3ccc(C(F)F)cc34)cn2)CC1` [Compound 5, 5-(difluoromethyl)-1′-(2-{[2-(1-methanesulfonylcyclopropyl)pyrimidin-5-yl]oxy}ethyl)-1,2-dihydrospiro[indole-3,4′-piperidin]-2-one]: the EC50 in experiment [1] (setting [3]) was 213 nM; in experiment [2] (setting [4]) it was 150 nM.
With `CS(=O)(=O)C1(c2ncc(OCCN3CCC4(CC3)C(=O)Nc3ccc(OC(F)F)cc34)cn2)CC1` [Compound 6, 5-(difluoromethoxy)-1′-(2-{[2-(1-methanesulfonylcyclopropyl)pyrimidin-5-yl]oxy}ethyl)-1,2-dihydrospiro[indole-3,4′-piperidin]-2-one], the EC50 in experiment [1] (setting [3]) stood at 121 nM; in experiment [2] (setting [4]) it was 381 nM.
For `O=C1CCc2cc(OCCN3CCC4(CC3)C(=O)Nc3ccc(Cl)cc34)ccc2N1` [Compound 82, 5-chloro-1′-{2-[(2-oxo-1,2,3,4-tetrahydroquinolin-6-yl)oxy]ethyl}-1,2-dihydrospiro[indole-3,4′-piperidin]-2-one], in that order: 72.2 nM and 254 nM.
Regarding `CS(=O)(=O)C1(c2c(F)cc(OCCN3CCC4(CC3)C(=O)Nc3ccc(C#N)cc34)cc2F)COC1` [Compound 84, 1′-{2-[3,5-difluoro-4-(3-methanesulfonyloxetan-3-yl)phenoxy]ethyl}-2-oxo-1,2-dihydrospiro[indole-3,4′-piperidine]-5-carbonitrile], the EC50 in experiment [1] (setting [3]) was 64.9 nM; in experiment [2] (setting [4]), 101 nM.
As for `O=C1Nc2ccc(Cl)cc2C12CCN(CCOc1ccc3c(cnn3[C@H]3C[C@@H](O)C3)c1)CC2` [Compound 85, 5-chloro-1′-[2-({1-[(cis)-3-hydroxycyclobutyl]-1H-indazol-5-yl}oxy)ethyl]-1,2-dihydrospiro[indole-3,4′-piperidin]-2-one], the EC50 in experiment [1] (setting [3]) stood at 70.3 nM; in experiment [2] (setting [4]) it was 115 nM.
With `O=C1Nc2ccc(Cl)cc2C12CCN(CCOc1ccc3c(cnn3[C@H]3C[C@H](O)C3)c1)CC2` [Compound 86, 5-chloro-1′-[2-({1-[(trans)-3-hydroxycyclobutyl]-1H-indazol-5-yl}oxy)ethyl]-1,2-dihydrospiro[indole-3,4′-piperidin]-2-one], the EC50 in experiment [1] (setting [3]) stood at 46.5 nM; in experiment [2] (setting [4]), 96.4 nM.
For the compound `O=C1Nc2ccc(Cl)cc2C12CCN(CCOc1ccc3[nH]ncc3c1)CC2` [Compound 87, 5-chloro-1′-[2-(2H-indazol-5-yloxy)ethyl]-1,2-dihydrospiro[indole-3,4′-piperidin]-2-one], the EC50 in experiment [1] (setting [3]) worked out at 103 nM; in experiment [2] (setting [4]), 268 nM.
On to `Cn1c(=O)[nH]c2cc(OCCN3CCC4(CC3)C(=O)Nc3ccc(Cl)cc34)ccc21` [Compound 88, 5-chloro-1′-{2-[(1-methyl-2-oxo-2,3-dihydro-1H-1,3-benzodiazol-5-yl)oxy]ethyl}-1,2-dihydrospiro[indole-3,4′-piperidin]-2-one], for which the EC50 in experiment [1] (setting [3]) is 121 nM; in experiment [2] (setting [4]), 451 nM.
Regarding `CS(=O)(=O)c1c(F)cc(OCCN2CCC3(CC2)C(=O)Nc2ccc(Cl)cc23)cc1F` [Compound 89, 5-chloro-1′-[2-(3,5-difluoro-4-methanesulfonylphenoxy)ethyl]-1,2-dihydrospiro[indole-3,4′-piperidin]-2-one], the EC50 stood at 55.7 nM in experiment [1] (setting [3]) and 101 nM in experiment [2] (setting [4]).
In the case of `CS(=O)(=O)c1c(F)cc(OCCN2CCC3(CC2)C(=O)Nc2ccc(C#N)cc23)cc1F` [Compound 90, 1′-[2-(3,5-difluoro-4-methanesulfonylphenoxy)ethyl]-2-oxo-1,2-dihydrospiro[indole-3,4′-piperidine]-5-carbonitrile], the EC50 in experiment [1] (setting [3]) came out at 151 nM; in experiment [2] (setting [4]) it was 546 nM.
For `COC(=O)C1(S(=O)(=O)c2ccc(OCCN3CCC4(CC3)C(=O)Nc3ccc(Cl)cc34)cc2)CC1` [Compound 91, methyl 1-[4-(2-{5-chloro-2-oxo-1,2-dihydrospiro[indole-3,4′-piperidin]-1′-yl}ethoxy)benzenesulfonyl]cyclopropane-1-carboxylate], the EC50 in experiment [1] (setting [3]) was 24.5 nM; in experiment [2] (setting [4]) it was 54.6 nM.
`CC1(S(=O)(=O)c2ccc(OCCN3CCC4(CC3)C(=O)Nc3ccc(Cl)cc34)cc2)COC1` [Compound 92, 5-chloro-1′-(2-{4-[(3-methyloxetan-3-yl)sulfonyl]phenoxy}ethyl)-1,2-dihydrospiro[indole-3,4′-piperidin]-2-one]: the EC50 in experiment [1] (setting [3]) was determined as 51.5 nM; in experiment [2] (setting [4]), 84.4 nM.
Consider `CC1(S(=O)(=O)c2ccc(OCCN3CCC4(CC3)C(=O)Nc3ccc(C#N)cc34)cc2)COC1` [Compound 93, 1′-(2-{4-[(3-methyloxetan-3-yl)sulfonyl]phenoxy}ethyl)-2-oxo-1,2-dihydrospiro[indole-3,4′-piperidine]-5-carbonitrile], for which the EC50 was 90.9 nM in experiment [1] (setting [3]) and 156 nM in experiment [2] (setting [4]).
On to `CS(=O)(=O)N1CCc2cc(OCCN3CCC4(CC3)C(=O)Nc3ccc(Cl)cc34)ccc2C1` [Compound 94, 5-chloro-1′-{2-[(2-methanesulfonyl-1,2,3,4-tetrahydroisoquinolin-6-yl)oxy]ethyl}-1,2-dihydrospiro[indole-3,4′-piperidin]-2-one], for which the values for the EC50 in experiment [1] (setting [3]) and in experiment [2] (setting [4]) were 140 nM and 403 nM, respectively.
In the case of `CN1C(=O)CCc2cc(OCCN3CCC4(CC3)C(=O)Nc3ccc(C#N)cc34)ccc21` [Compound 95, 1′-{2-[(1-methyl-2-oxo-1,2,3,4-tetrahydroquinolin-6-yl)oxy]ethyl}-2-oxo-1,2-dihydrospiro[indole-3,4′-piperidine]-5-carbonitrile], the EC50 stood at 246 nM in experiment [1] (setting [3]) and 592 nM in experiment [2] (setting [4]).

As usually defined, the EC50 is the concentration that produces a half-maximal response.
